{"source": "paper PMC9266914", "about": "“Broad Spectrum Functional Activity of Structurally Related Monoanionic Au(III) Bis(Dithiolene) Complexes” (International Journal of Molecular Sciences, 2022)", "key": {"C. glabrata CBS138": {"system": "C. glabrata CBS138", "test": "MIC determination, C. glabrata", "type": "cell-based, Candida glabrata", "conditions": "RPMIG, 24 h, 35 °C", "text": "(§1) The bacterial strains Escherichia coli ATCC25922 and Staphylococcus aureus Newman were used in this work and maintained in Lennox Broth (LB) solid medium, composed of 10 g/L tryptone, 5 g/L yeast extract, 5 g/L NaCl and 20 g/L agar. The fungal strains Candida albicans SC5134 and C. glabrata CBS138 were used in this work and maintained in YPD solid medium, composed of 20 g/L glucose, 20 g/L peptone, 10 g/L yeast extract and 15 g/L agar. The strains were isolated from human infections.\n(§2) The antimicrobial activity of the complexes towards the bacterial and fungal strains was assessed by the determination of the Minimal Inhibitory Concentration (MIC) of each complex towards the indicated microbial strains, based on standard methods, and as previously described. […] Serial 1:2 dilutions of stock solutions were prepared for each complex in Mueller–Hinton (MH) broth (Fluka Analytical) or RPMI-1640 medium (Sigma) supplemented with 20 g/L glucose and buffered with 0.165 M morpholinepropanesulphonic acid (RPMIG) to pH 7.0. Solutions prepared with MH were used for testing bacteria, while those prepared with RPMIG were used for testing fungi. For antibacterial activity assays, the final concentrations ranged from 250 to 0.24 μg/mL (when stock solution final concentration was 10 mg/mL), 125 μg/mL to 0.12 μg/mL (when stock solution final concentration was 5 mg/mL) and 62.5 to 0.06 μg/mL (when stock solution final concentration was 2.5 mg/mL). For antifungal assays, the final concentrations ranged from 125 μg/mL to 0.12 μg/mL (when stock solution final concentration was 10 mg/mL), 62.5 to 0.06 μg/mL (when stock solution final concentration was 5 mg/mL) and 31.25 to 0.03 μg/mL (when stock solution final concentration was 2.5 mg/mL). Then, 100 μL aliquots of adequately diluted bacterial suspensions of S. aureus Newman or E. coli ATCC 25922 were mixed with the MH serially diluted complexes aliquots to obtain 5 × 10^5 CFU/mL. In the case of fungi, cultures were diluted to obtain a final optical density of 0.025, measured at 530 nm (OD530). Bacterial suspensions were prepared from cultures grown for 5 h in MH broth at 37 °C and 250 rev·min^−1 and adequately diluted with fresh MH medium, while fungal suspensions were prepared from overnight cultures grown in YPD broth at 30 °C and 250 rev.min^−1 and diluted in buffered RPMIG. After 22 h of incubation at 37 °C (bacteria) or 24 h at 35 °C (fungi), the wells’ content was resuspended by pipetting and the OD640 (bacteria) or OD530 (fungi) were measured in a SPECTROstar Nano microplate reader (BMG Labtech).\n(§3) At least three independent experiments were performed in duplicate for each complex under study. […] Positive (no complex) and negative controls (no inoculum) were performed for each experiment. The effect of 5% (V/V) DMSO on microbial growth was also assessed."}, "TZM-bl cells": {"system": "TZM-bl cells", "test": "alamarBlue cytotoxicity in TZM-bl cells", "type": "cell-based", "description": "The in vitro cytotoxicity of auranofin, [P][AuSBu(=S)] and [P][AuSEt(=S)] was evaluated in TZM-bl cells using alamarBlue cell viability reagent (Life Technologies, Carlsbad, CA, USA). TZM-bl cells (AIDS Research and Reference Reagent Program, National Institutes of Health, Bethesda, MD, USA) were cultured in complete growth medium that consists of Dulbecco’s minimal essential medium (DMEM) supplemented with 10% fetal bovine serum (FBS), 100 U/ml of penicillin-streptomycin (Gibco/Invitrogen, Waltham, MA, USA), 1 mM of sodium pyruvate (Gibco/Invitrogen, Carlsbad, CA, USA), 2 mM of L-glutamine (Gibco/Invitrogen, USA) and 1 mM of non-essential amino acids (Gibco/Invitrogen, USA). Cells were cultured in the presence and absence of serial-fold dilutions of the compounds. At least two independent experiments were performed for each cytotoxicity analysis. Each dilution of each compound was performed in triplicate wells. For each assay we had medium controls (only growth medium), cell controls (cells without test compound) and cytotoxicity controls (a compound that kill cells). The cytotoxicity of each compound was expressed by the 50% cytotoxic concentration (CC50), which is the concentration of compound causing 50% decrease in cellular viability."}, "C. albicans SC5134": {"system": "C. albicans SC5134", "test": "MIC determination, C. albicans", "type": "cell-based, Candida albicans", "conditions": "RPMIG, 24 h, 35 °C", "text": "as §1, §2, §3"}, "[1]": {"system": "OVCAR8 ovarian cancer cells", "test": "MTT cytotoxicity assay in OVCAR8 (cisplatin resistant) ovarian cancer cells", "type": "cell-based, human", "conditions": "48 h incubation", "outline": "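Cells in RPMI-1640 with 10% FBS exposed to complexes at 0.01–100 μM for 24 and/or 48 h at 37 °C. Viability by colorimetric MTT; IC50 derived from dose–response curves.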"}}, "note": "Where “and” joins values, the source holds several entries; their conditions need not be identical. Identical values can stand only once. Like-named read-outs stand apart in the source and are kept apart here.", "data": [{"compound": "CCn1c2c(sc1=S)[S][Au-]1([S]c3sc(=S)n(CC)c3[S]1)[S]2.c1ccc([P+](c2ccccc2)(c2ccccc2)c2ccccc2)cc1", "note": "[[P][AuSEt(=S)]]", "values": [{"measurement": "MIC C. glabrata CBS138", "setting": "C. glabrata CBS138", "result": ">62.5", "unit": "µg/mL"}, {"measurement": "CC50", "setting": "TZM-bl cells", "result": 4.92, "unit": "µM"}, {"measurement": "cytotoxicity in TZM-bl culture cells", "setting": "TZM-bl cells", "result": "No significant cytotoxicity"}, {"measurement": "MIC C. albicans SC5134", "setting": "C. albicans SC5134", "result": ">62.5", "unit": "µg/mL"}, {"measurement": "IC50", "setting": "[1]", "result": "0.85 ± 0.19", "unit": "µM"}]}, {"compound": "CC(=O)OC[C@H]1O[C@@H]([S-])[C@H](OC(C)=O)[C@@H](OC(C)=O)[C@@H]1OC(C)=O.CCP(CC)CC.[Au+]", "note": "[Auranofin, reference compound]", "values": [{"measurement": "MIC C. glabrata CBS138", "setting": "C. glabrata CBS138", "result": "15.2 ± 0.6", "unit": "µg/mL"}, {"measurement": "CC50", "setting": "TZM-bl cells; TZM-bl cells, alamarBlue, read-out: CC50", "result": 3.21, "unit": "µM"}, {"measurement": "MIC C. albicans SC5134", "setting": "C. albicans SC5134", "result": "7.9 µg/mL and 7.9 ± 0.5 µg/mL"}, {"measurement": "IC50", "setting": "[1]", "result": "1.04 ± 0.41", "unit": "µM"}]}, {"compound": "CCn1c2c(sc1=[Se])[S][Au-]1([S]c3sc(=[Se])n(CC)c3[S]1)[S]2.c1ccc([P+](c2ccccc2)(c2ccccc2)c2ccccc2)cc1", "note": "[[P][AuSEt(=Se)]]", "values": [{"measurement": "MIC C. glabrata CBS138", "setting": "C. glabrata CBS138", "result": ">62.5", "unit": "µg/mL"}, {"measurement": "MIC C. albicans SC5134", "setting": "C. albicans SC5134", "result": ">62.5", "unit": "µg/mL"}, {"measurement": "IC50", "setting": "[1]", "result": "0.97 ± 0.18", "unit": "µM"}]}, {"compound": "CCCCn1c2c(sc1=S)[S][Au-]1([S]c3sc(=S)n(CCCC)c3[S]1)[S]2.c1ccc([P+](c2ccccc2)(c2ccccc2)c2ccccc2)cc1", "note": "[[P][AuSBu(=S)]]", "values": [{"measurement": "MIC C. glabrata CBS138", "setting": "C. glabrata CBS138", "result": ">62.5", "unit": "µg/mL"}, {"measurement": "CC50", "setting": "TZM-bl cells", "result": "not possible to calculate"}, {"measurement": "cytotoxicity in TZM-bl culture cells", "setting": "TZM-bl cells", "result": "No significant cytotoxicity"}, {"measurement": "MIC C. albicans SC5134", "setting": "C. albicans SC5134", "result": ">62.5", "unit": "µg/mL"}, {"measurement": "IC50", "setting": "[1]", "result": "1.41 ± 0.56", "unit": "µM"}]}, {"compound": "CC(C)n1c2c(sc1=S)[Se][Au-]1([Se]c3sc(=S)n(C(C)C)c3[Se]1)[Se]2.c1ccc([P+](c2ccccc2)(c2ccccc2)c2ccccc2)cc1", "note": "[[P][AuSeiPr(=S)]]", "values": [{"measurement": "MIC C. glabrata CBS138", "setting": "C. glabrata CBS138", "result": ">31.25", "unit": "µg/mL"}, {"measurement": "MIC C. albicans SC5134", "setting": "C. albicans SC5134", "result": ">31.25", "unit": "µg/mL"}, {"measurement": "IC50", "setting": "[1]", "result": "3.86 ± 0.91", "unit": "µM"}]}]}
